# Laboratory results as given in patent US20140186260A1, “RADIOPHARMACEUTICAL AND PHARMACEUTICAL KIT” (NIHON MEDI-PHYSICS CO., LTD., priority 2012, published 2014).
# Where a name gives a salt, the structure may show the parent alone. Read-outs that look alike come from different tables or passages of the source.
# Tests used:
# CD133-positive cells = conditions: Yoshii et al. 2010; cited from earlier work
# tumor = conditions: Yoshii et al. 2011; cited from earlier work
# HT29 tumor-bearing mice [1] = assay: Effect of D-penicillamine on PET imaging of ^64Cu-ATSM in HT29 tumor-bearing mouse; assay type: in vivo
# Protocol: The distribution of radioactivity was imaged using a PET device specific for small animals (Inveon, from Siemens Medical Systems, Inc.) 30 minutes and 2, 3, 4, 5, 6, 7, 8, and 24 hours after the administration of ^64Cu-ATSM. Image acquisition was performed for 5 minutes from each time point, and the image was reconstructed by a 3-dimensional maximum a posteriori probability method (3D-MAP method) using Inveon Acquisition Workplace Software (from Siemens Medical Systems, Inc.). As a control, PET imaging was also similarly performed in mice receiving the administration of saline in place of D-penicillamine.
# HT29 tumor-bearing mice [2] = conditions: trientine hydrochloride 500 mg/kg oral 1 hour after ^64Cu-ATSM; vs saline
# Protocol: Human large bowel cancer-derived HT29 cells were purchased from ATCC and proliferated for use. The HT29 tumor-bearing model was prepared by implanting 1×10^7 HT29 cells subcutaneously in the femoral region of BALB/c nude mice (male, 6-week old, about 25 g in body weight, obtained from Japan SLC, Inc.), and used for the experiment 3 weeks after implantation. The tumor-bearing mice were fasted from 16 hours or more before the start of the experiment. 185 kBq (5 μCi) of ^64Cu-ATSM was administered through the tail vein of the HT29 tumor-bearing mice, and D-penicillamine was orally administered to 500 mg/kg 10 minutes therebefore or 1 hour thereafter. Saline was administered to a control group in place of D-penicillamine. They were sacrificed by blood removal from the heart under diethyl ether anesthesia 1, 2, and 3 hours after the administration of ^64Cu-ATSM; each tissue was removed and weighed; and radioactivity was further measured using an automatic gamma counter (Model: 1480 Wizard 3, from PerkinElmer Co., Ltd.). The radioactivity distributed in each organ was expressed as radioactivity per g of organ (% ID (Injected Dose)/g tissue) when the amount administered is set to 100%. 185 kBq (5 μCi) of ^64Cu-ATSM was administered through the tail vein of the HT29 tumor-bearing mice prepared by the same method as Example 3, and D-penicillamine was orally administered to 100, 300, or 500 mg/kg 1 hour thereafter. Saline was administered to a control group in place of D-penicillamine. They were sacrificed by blood removal from the heart under diethyl ether anesthesia 2, 4, 6, 16, and 24 hours after the administration of ^64Cu-ATSM; each tissue was removed and weighed; and radioactivity was further measured. The excreted urine and feces were recovered, and radioactivity was similarly measured. The radioactivity distributed in each organ was expressed as ID/g tissue. The excretion of radioactivity into each of urine and feces was expressed as radioactivity (% ID) when the amount administered was set to 100%. 185 kBq (5 μCi) of ^64Cu-ATSM was administered through the tail vein of the tumor-bearing mice prepared by the same method as Example 3, and trientine hydrochloride was orally administered to 500 mg/kg 1 hour thereafter. Saline was administered to a control group in place of trientine hydrochloride. Thereafter, radioactivity in each organ, urine, and feces was measured as Example 4; the radioactivity distributed in each organ was expressed as % ID/g tissue, and the excretion of radioactivity into urine and feces was expressed as % ID.
# [3] = ^64Cu complex exchange reaction between ^64Cu-ATSM and chelating agent in mouse plasma (TLC); conditions: 37° C., chelating agent 10 mg/mL, ^64Cu-ATSM 6 μCi/mL, 5, 30 or 60 minutes
# Protocol: Blood collected from BALB/c nude mice (male, 6-week old, about 25 g in body weight, obtained from Japan SLC, Inc.) under diethyl ether anesthesia was centrifuged (high-speed cooling centrifuge Model MX-105, from Tomy Co., Ltd., 3,000 rpm, 10 minutes) to provide plasma. In the mouse plasma maintained at 37° C. was mixed each of D-penicillamine, dimercaprol, trientine hydrochloride, and deferoxamine mesylate to a final concentration of 10 mg/mL, to which ^64Cu-ATSM was then added to a final concentration of 6 μCi/mL. After maintaining each of the mixtures at 37° C. for 5 minutes, 30 minutes, or 60 minutes, methanol cooled at 4° C. in advance was added in an equal amount to the plasma thereto, which was thoroughly mixed and centrifuged (as above), followed by analyzing the supernatant by a TLC method.
# HT29 tumor-bearing mice [4] = assay: Effect of Ca-DTPA on in vivo pharmacokinetics of ^64Cu-ATSM in HT29 tumor-bearing mouse (Comparative Example 1); conditions: Ca-DTPA 150 mg/kg i.v. 10 minutes after ^64Cu-ATSM; 1 and 2 hours; vs saline
# HT29 tumor-bearing mice [5] = assay: Effect of repeated D-penicillamine with or without glycerin enema on in vivo pharmacokinetics and excretion of ^64Cu-ATSM in HT29 tumor-bearing mouse (4); conditions: D-penicillamine 100 mg/kg oral at 1, 3 and 5 hours after ^64Cu-ATSM, vs saline
# Description: FIGS. 12A, 12B and 12C were expressed in average and standard deviation for 4 mice.
# HT29 tumor-bearing mice [6] = assay: Effect of D-penicillamine on in vivo pharmacokinetics and excretion of ^64Cu-ATSM in HT29 tumor-bearing mouse (2): dose dependence; conditions: D-penicillamine 100, 300 or 500 mg/kg oral 1 hour after ^64Cu-ATSM, vs saline
# HT29 tumor-bearing mice [7] = assay: Effect of D-penicillamine on in vivo pharmacokinetics of ^64Cu-ATSM in HT29 tumor-bearing mouse (1): before/after dosing; conditions: vs saline
# HT29 tumor-bearing mice [8] = assay: Effect of D-penicillamine on in vivo pharmacokinetics and excretion of ^64Cu-ATSM in HT29 tumor-bearing mouse (3): repeated administration; conditions: D-penicillamine 100 mg/kg oral 3 times at 1-hour or 2-hour intervals, vs saline
# Protocol: 185 kBq (5 μCi) of ^64Cu-ATSM was administered through the tail vein of the tumor-bearing mice prepared by the same method as Example 3; D-penicillamine was orally administered to 100 mg/kg 1 hour thereafter; and D-penicillamine was then orally administered to 100 mg/kg 2 times at 1-hour or 2-hour intervals. Saline was administered to a control group in place of D-penicillamine. Thereafter, radioactivity in each organ, urine, and feces was measured as Example 4; the radioactivity distributed in each organ was expressed as % ID/g tissue, and the excretion of radioactivity into urine and feces was expressed as % ID.
# [9] = D-penicillamine 300 mg/kg oral 1 hour after 37 MBq ^64Cu-ATSM, vs saline
smiles,measurement,setting,value
"CN=C([S-])N/N=C(C)/C(C)=N/NC([S-])=NC.[64Cu+2] [^64Cu-ATSM, radioactive diacetyl-bis(N4-methylthiosemicarbazone) copper complex]",accumulation in CD133-positive cells,CD133-positive cells,accumulates in CD133-positive cells
same,amount of CD133-positive cells in tumor,tumor,decreased the amount of CD133-positive cells in tumor
same,tumor size,tumor,shrink the tumor
same,radioactivity accumulation in the liver after ^64Cu-ATSM (PET),"HT29 tumor-bearing mice [1]; 37 MBq ^64Cu-ATSM i.v., before chelating agent",radioactivity accumulation in the liver was once observed
NCCNCCNCCN [trientine hydrochloride],excretion of radioactivity into feces,HT29 tumor-bearing mice [2],less affected
same,excretion of radioactivity into urine,HT29 tumor-bearing mice [2],statistically significantly promoted
same,uptake of radioactivity into the liver,HT29 tumor-bearing mice [2],tended to be decreased
same,uptake of radioactivity into the tumor,HT29 tumor-bearing mice [2],not statistically significantly affected
same,^64Cu complex exchange reaction from ^64Cu-ATSM to a highly polar complex,[3],the effect thereof was relatively weak
OCC(S)CS (stereo not drawn) [dimercaprol],^64Cu complex exchange reaction from ^64Cu-ATSM to a highly polar complex,[3],"Cu-ATSM and unidentified metabolites or degradation products rapidly disappeared, and the origin component increased"
O=C([O-])CN(CCN(CC(=O)[O-])CC(=O)[O-])CCN(CC(=O)[O-])CC(=O)[O-].[Ca+2].[Na+].[Na+].[Na+] [Ca-DTPA],uptake of radioactivity into each organ and tumor,HT29 tumor-bearing mice [4],statistically little affected
CC(C)(S)[C@@H](N)C(=O)O [D-penicillamine],uptake of radioactivity into the liver,"HT29 tumor-bearing mice [5]; 6, 16, 24 hours",decreased
same,excretion of radioactivity into urine,HT29 tumor-bearing mice [5],statistically significantly promoted
same,uptake of radioactivity into the tumor,HT29 tumor-bearing mice [5],not statistically significantly affected
same,^64Cu complex exchange reaction from ^64Cu-ATSM to a highly polar complex,[3],"Cu-ATSM and unidentified metabolites or degradation products rapidly disappeared, and the origin component increased"
same,uptake of radioactivity into the liver,HT29 tumor-bearing mice [6]; 2-24 hours,dose-dependently decreased
same,excretion of radioactivity into feces,HT29 tumor-bearing mice [6],less affected
same,excretion of radioactivity into urine,HT29 tumor-bearing mice [6],statistically significantly promoted
same,uptake of radioactivity into the tumor,HT29 tumor-bearing mice [6],not statistically significantly affected
same,uptake of radioactivity into the tumor,HT29 tumor-bearing mice [7]; D-penicillamine 500 mg/kg oral 10 minutes before ^64Cu-ATSM,decreased the uptake of radioactivity into the tumor
same,uptake of ^64Cu-ATSM into the tumor,HT29 tumor-bearing mice [7]; D-penicillamine 500 mg/kg oral 1 hour after ^64Cu-ATSM,did not affect
same,uptake of radioactivity into the liver,"HT29 tumor-bearing mice [7]; D-penicillamine 500 mg/kg oral, 10 minutes before or 1 hour after ^64Cu-ATSM i.v., 1, 2, 3 hours",markedly decreased
same,accumulation of radioactivity in the bladder (PET),HT29 tumor-bearing mice [1]; [9],increase the accumulation of radioactivity in the bladder
same,accumulation of radioactivity in the liver (PET),HT29 tumor-bearing mice [1]; [9],decrease the accumulation of radioactivity in the liver
same,accumulation of radioactivity in the tumor (PET),HT29 tumor-bearing mice [1]; [9],not affected
same,uptake of radioactivity into the liver,HT29 tumor-bearing mice [8]; from 1 hour after ^64Cu-ATSM,decreased
same,excretion of radioactivity into feces,HT29 tumor-bearing mice [8],less affected
same,excretion of radioactivity into urine,HT29 tumor-bearing mice [8],statistically significantly promoted
same,uptake of radioactivity into the tumor,HT29 tumor-bearing mice [8],not statistically significantly affected
CC(=O)N(O)CCCCCNC(=O)CCC(=O)N(O)CCCCCNC(=O)CCC(=O)N(O)CCCCCN [deferoxamine mesylate],^64Cu complex exchange reaction from ^64Cu-ATSM to a highly polar complex,[3],No complex exchange reaction
